# Source: patent US20230085307A1, “PYRIDAZINONE COMPOUND AND HERBICIDE” (NISSAN CHEMICAL CORPORATION, priority 2019, published 2023)
# System: green foxtail
# Assay: Test Example 5: herbicidal effect by foliage application, plastic box (Table 20, symbol G)
# Type: in vivo, green foxtail (Setaria viridis)
# Conditions: foliage application, 320 g/ha, evaluated three weeks after application
# Method in brief: (§1)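 Sow seeds spot-wise in sterilized diluvial soil; cover with ~1.5 cm soil. Grow 14 days in greenhouse, 25° C. to 30° C. Spray foliage with emulsion diluted to predetermined amount. Rate effect after 3 weeks.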
row,SMILES,herbicidal effect on G: green foxtail (criteria 0-5)
1,Cc1nn(C)c(=O)c(-c2c(-c3ccccc3)sc3ccc(F)cc23)c1O [2-197],5 (Herbicidal rate of 90% or more (almost completely withered))
2,CCCC(=O)Oc1c(C)nn(C)c(=O)c1-c1c(-c2ccccc2)sc2ccc(F)cc12 [2-198],4 (Herbicidal rate of 70% or more and less than 90%)

# System: redroot pigweed
# Assay: Test Example 4: herbicidal effect by soil treatment (Table 19, symbol N)
# Type: in vivo, redroot pigweed (Amaranthus retroflexus)
# Conditions: amount of applied herbicide 320 g/ha
# Method in brief: (§2)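 Soil-surface application: an emulsion agent diluted with water to the predetermined dose is sprayed uniformly over seeds lying under roughly 1.5 cm of sterilized diluvial soil. Boxes stay in a greenhouse at 25° C. to 30° C. Three weeks later, each species is graded on previously defined criteria.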
row,SMILES,"N: redroot pigweed, herbicidal effect rating"
1,Cc1nn(C)c(=O)c(-c2c(-c3ccccc3)sc3ccc(F)cc23)c1O [2-197],5 (Herbicidal rate of 90% or more (almost completely withered))
2,CCCC(=O)Oc1c(C)nn(C)c(=O)c1-c1c(-c2ccccc2)sc2ccc(F)cc12 [2-198],5 (Herbicidal rate of 90% or more (almost completely withered))

# System: blackgrass
# Assay: Test Example 5: herbicidal effect by foliage application, plastic box (Table 20, symbol J)
# Type: in vivo, blackgrass (Alopecurus myosuroides)
# Conditions: foliage application, 320 g/ha, evaluated three weeks after application
# Method in brief: as §1
row,SMILES,herbicidal effect on J: blackgrass (criteria 0-5)
1,Cc1nn(C)c(=O)c(-c2c(-c3ccccc3)sc3ccc(F)cc23)c1O [2-197],4 (Herbicidal rate of 70% or more and less than 90%)
2,CCCC(=O)Oc1c(C)nn(C)c(=O)c1-c1c(-c2ccccc2)sc2ccc(F)cc12 [2-198],4 (Herbicidal rate of 70% or more and less than 90%)

# System: windgrass
# Assay: Test Example 4: herbicidal effect by soil treatment (Table 19, symbol L)
# Type: in vivo, windgrass (Apera spica-venti)
# Conditions: amount of applied herbicide 320 g/ha
# Method in brief: as §2
row,SMILES,"L: windgrass, herbicidal effect rating"
1,Cc1nn(C)c(=O)c(-c2c(-c3ccccc3)sc3ccc(F)cc23)c1O [2-197],1 (Herbicidal rate of 5% or more and less than 20%)
2,CCCC(=O)Oc1c(C)nn(C)c(=O)c1-c1c(-c2ccccc2)sc2ccc(F)cc12 [2-198],3 (Herbicidal rate of 40% or more and less than 70%)

# System: southern crabgrass
# Assay: Test Example 5: herbicidal effect by foliage application, plastic box (Table 20, symbol F)
# Type: in vivo, southern crabgrass (Digitaria ciliaris)
# Conditions: foliage application, 320 g/ha, evaluated three weeks after application
# Method in brief: as §1
row,SMILES,herbicidal effect on F: southern crabgrass (criteria 0-5)
1,Cc1nn(C)c(=O)c(-c2c(-c3ccccc3)sc3ccc(F)cc23)c1O [2-197],5 (Herbicidal rate of 90% or more (almost completely withered))
2,CCCC(=O)Oc1c(C)nn(C)c(=O)c1-c1c(-c2ccccc2)sc2ccc(F)cc12 [2-198],5 (Herbicidal rate of 90% or more (almost completely withered))

# System: late watergrass
# Assay: Test Example 1: herbicidal activity, application before weed generation under submerged conditions (Table 16, symbol A)
# Type: in vivo, late watergrass (Echinochloa oryzicola)
# Conditions: 320 g/ha applied herbicide
# Method in brief: (§3)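 Emulsion formulation, water-diluted to set dose, was put onto the flooded surface (4 cm depth, alluvial soil) the same day weeds were sown and 2.5-leaf rice transplanted. After 3 weeks at 25-30 °C under glass, each species was rated 0 (≤5% kill) to 5 (≥90% kill).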
row,SMILES,Herbicidal effect on A: late watergrass (grade 0-5)
1,Cc1nn(C)c(=O)c(-c2c(-c3ccccc3)sc3ccc(F)cc23)c1O [2-197],3 (Herbicidal rate of 40% or more and less than 70%)
2,CCCC(=O)Oc1c(C)nn(C)c(=O)c1-c1c(-c2ccccc2)sc2ccc(F)cc12 [2-198],5 (Herbicidal rate of 90% or more (almost completely withered))

# System: barnyard grass
# Assay: Test Example 5: herbicidal effect by foliage application, plastic box (Table 20, symbol H)
# Type: in vivo, barnyard grass (Echinochloa crus-galli)
# Conditions: foliage application, 320 g/ha, evaluated three weeks after application
# Method in brief: as §1
row,SMILES,herbicidal effect on H: barnyard grass (criteria 0-5)
1,Cc1nn(C)c(=O)c(-c2c(-c3ccccc3)sc3ccc(F)cc23)c1O [2-197],5 (Herbicidal rate of 90% or more (almost completely withered))
2,CCCC(=O)Oc1c(C)nn(C)c(=O)c1-c1c(-c2ccccc2)sc2ccc(F)cc12 [2-198],3 (Herbicidal rate of 40% or more and less than 70%)

# System: persian speedwell
# Assay: Test Example 5: herbicidal effect by foliage application, plastic box (Table 20, symbol R)
# Type: in vivo, Persian speedwell (Veronica persica)
# Conditions: foliage application, 320 g/ha, evaluated three weeks after application
# Method in brief: as §1
row,SMILES,herbicidal effect on R: persian speedwell (criteria 0-5)
1,Cc1nn(C)c(=O)c(-c2c(-c3ccccc3)sc3ccc(F)cc23)c1O [2-197],5 (Herbicidal rate of 90% or more (almost completely withered))
2,CCCC(=O)Oc1c(C)nn(C)c(=O)c1-c1c(-c2ccccc2)sc2ccc(F)cc12 [2-198],5 (Herbicidal rate of 90% or more (almost completely withered))

# System: rice flat sedge
# Assay: Test Example 3: herbicidal effect by foliage application, Wagner pot (Table 18, symbol E)
# Type: in vivo, rice flat sedge (Cyperus iria)
# Conditions: amount of applied herbicide 320 g/ha
# Method in brief: (§4)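 Plants were sown in alluvial soil held under 0.1–0.5 cm standing water and grown 14 days in a greenhouse at 25–30 °C. An emulsifiable formulation, water-diluted to the set dose, was then sprayed onto the foliage, and effects were scored three weeks later using previously defined criteria.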
row,SMILES,herbicidal effect on E: rice flat sedge
1,Cc1nn(C)c(=O)c(-c2c(-c3ccccc3)sc3ccc(F)cc23)c1O [2-197],5 (Herbicidal rate of 90% or more (almost completely withered))
2,CCCC(=O)Oc1c(C)nn(C)c(=O)c1-c1c(-c2ccccc2)sc2ccc(F)cc12 [2-198],5 (Herbicidal rate of 90% or more (almost completely withered))

# System: Italian ryegrass
# Assay: Test Example 4: herbicidal effect by soil treatment (Table 19, symbol K)
# Type: in vivo, Italian ryegrass (Lolium multiflorum)
# Conditions: amount of applied herbicide 320 g/ha
# Method in brief: as §2
row,SMILES,"K: Italian ryegrass, herbicidal effect rating"
1,Cc1nn(C)c(=O)c(-c2c(-c3ccccc3)sc3ccc(F)cc23)c1O [2-197],4 (Herbicidal rate of 70% or more and less than 90%)
2,CCCC(=O)Oc1c(C)nn(C)c(=O)c1-c1c(-c2ccccc2)sc2ccc(F)cc12 [2-198],4 (Herbicidal rate of 70% or more and less than 90%)

# System: late watergrass
# Assay: Test Example 2: herbicidal activity, application during weed generation under submerged conditions (Table 17, symbol A)
# Type: in vivo, late watergrass (Echinochloa oryzicola)
# Conditions: AAH 320 g/ha; application during weed generation, submerged conditions
# Method in brief: (§5)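 Effect on each weed is rated three weeks post-treatment, using the same scoring criteria as the preceding test. Plants grow from mixed-sown seed in flooded alluvial soil (4 cm water) at 25° C. to 30° C., and are treated at one to two leaves with diluted emulsion dropped onto the water.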
row,SMILES,"herbicidal effect rating, A: late watergrass"
1,Cc1nn(C)c(=O)c(-c2c(-c3ccccc3)sc3ccc(F)cc23)c1O [2-197],3 (Herbicidal rate of 40% or more and less than 70%)
2,CCCC(=O)Oc1c(C)nn(C)c(=O)c1-c1c(-c2ccccc2)sc2ccc(F)cc12 [2-198],2 (Herbicidal rate of 20% or more and less than 40%)

# System: Chinese sprangletop
# Assay: Test Example 3: herbicidal effect by foliage application, Wagner pot (Table 18, symbol D)
# Type: in vivo, chinese sprangletop (Leptochloa chinensis)
# Conditions: amount of applied herbicide 320 g/ha
# Method in brief: as §4
row,SMILES,herbicidal effect on D: Chinese sprangletop
1,Cc1nn(C)c(=O)c(-c2c(-c3ccccc3)sc3ccc(F)cc23)c1O [2-197],5 (Herbicidal rate of 90% or more (almost completely withered))
2,CCCC(=O)Oc1c(C)nn(C)c(=O)c1-c1c(-c2ccccc2)sc2ccc(F)cc12 [2-198],5 (Herbicidal rate of 90% or more (almost completely withered))

# System: oval-leafed pondweed
# Assay: Test Example 2: herbicidal activity, application during weed generation under submerged conditions (Table 17, symbol C)
# Type: in vivo, oval-leafed pondweed (Monochoria vaginalis)
# Conditions: AAH 320 g/ha; application during weed generation, submerged conditions
# Method in brief: as §5
row,SMILES,"herbicidal effect rating, C: oval-leafed pondweed"
1,Cc1nn(C)c(=O)c(-c2c(-c3ccccc3)sc3ccc(F)cc23)c1O [2-197],4 (Herbicidal rate of 70% or more and less than 90%)
2,CCCC(=O)Oc1c(C)nn(C)c(=O)c1-c1c(-c2ccccc2)sc2ccc(F)cc12 [2-198],4 (Herbicidal rate of 70% or more and less than 90%)

# System: Japanese bulrush
# Assay: Test Example 1: herbicidal activity, application before weed generation under submerged conditions (Table 16, symbol B)
# Type: in vivo, Japanese bulrush (Schoenoplectus juncoides)
# Conditions: 320 g/ha applied herbicide
# Method in brief: as §3
row,SMILES,Herbicidal effect on B: Japanese bulrush (grade 0-5)
1,Cc1nn(C)c(=O)c(-c2c(-c3ccccc3)sc3ccc(F)cc23)c1O [2-197],3 (Herbicidal rate of 40% or more and less than 70%)
2,CCCC(=O)Oc1c(C)nn(C)c(=O)c1-c1c(-c2ccccc2)sc2ccc(F)cc12 [2-198],3 (Herbicidal rate of 40% or more and less than 70%)

# System: barnyard grass
# Assay: Test Example 3: herbicidal effect by foliage application, Wagner pot (Table 18, symbol H)
# Type: in vivo, barnyard grass (Echinochloa crus-galli)
# Conditions: amount of applied herbicide 320 g/ha
# Method in brief: as §4
row,SMILES,herbicidal effect on H: barnyard grass
1,Cc1nn(C)c(=O)c(-c2c(-c3ccccc3)sc3ccc(F)cc23)c1O [2-197],5 (Herbicidal rate of 90% or more (almost completely withered))
2,CCCC(=O)Oc1c(C)nn(C)c(=O)c1-c1c(-c2ccccc2)sc2ccc(F)cc12 [2-198],5 (Herbicidal rate of 90% or more (almost completely withered))

# System: wild oat
# Assay: Test Example 5: herbicidal effect by foliage application, plastic box (Table 20, symbol I)
# Type: in vivo, wild oat (Avena fatua)
# Conditions: foliage application, 320 g/ha, evaluated three weeks after application
# Method in brief: as §1
row,SMILES,herbicidal effect on I: wild oat (criteria 0-5)
1,Cc1nn(C)c(=O)c(-c2c(-c3ccccc3)sc3ccc(F)cc23)c1O [2-197],4 (Herbicidal rate of 70% or more and less than 90%)
2,CCCC(=O)Oc1c(C)nn(C)c(=O)c1-c1c(-c2ccccc2)sc2ccc(F)cc12 [2-198],4 (Herbicidal rate of 70% or more and less than 90%)
